Measured values as given in patent publication US12582120B2, “Compositions with fatty acids and optional cationic compounds and methods of use” (priority 2021, dated 2026).
Several values for one entry are separate records, joined by “and”; a condition that tells them apart may be missing. Equal entries are not always repeated.

Columns and labels:
[1] = system: Lactobacillus brevis (ATCC 14869); assay: Example 1 preliminary screen of antimicrobial efficacy, Lactobacillus; type: cell-based
Description: Example 1 was a preliminary screen of various compositions for antimicrobial efficacy against acetobacter and lactobacillus and yeast. […]

[2] = system: Acetobacter aceti (ATCC 15973); assay: Example 1 preliminary screen of antimicrobial efficacy, Acetobacter; type: cell-based; conditions: 60 s, 50 °C
Procedure: (§1) Example 1 was a preliminary screen of various compositions for antimicrobial efficacy against acetobacter and lactobacillus and yeast. For this example, the compositions were applied for 1 minute at 50° C. or 60° C. to Acetobacter aceti (ATCC 15973), Lactobacillus brevis (ATCC 14869), or Saccharomyces cerevisiae (ATCC 834).

[3] = system: Saccharomyces cerevisiae (ATCC 834); assay: Example 1 preliminary screen of antimicrobial efficacy, yeast; type: cell-based; conditions: pH 9, 60 s, 50 °C
Procedure: as §1

[4] = system: Acetobacter aceti (ATCC 15973); assay: Example 3 suspension test of nonanoic acid alone, Acetobacter; type: cell-based; conditions: for % reduction / Log Reduction: Nonanoic Acid 200 ppm, pH 9
Procedure: (§2) Example 3 tested concentrations of nonanoic acid alone for antimicrobial efficacy against acetobacter and lactobacillus. For this example, the compositions were applied for the recorded time and temperature to suspensions of Acetobacter aceti (ATCC 15973), or Lactobacillus brevis (ATCC 14869). After the period of time, a neutralizer was added to quench the reaction. The remaining solution was plated and counted for colonies and compared to the untreated control. The log reduction was recorded in the table below. The information in the column labeled “solution” describes the solution environment that was used for a test. For example, the solution may have included 0.5% or 1% sodium bicarbonate. The solution may have included multi-day old used clean-in-place solution from a plant that included sodium carbonate (labeled “used CIP”). The pH of the solution was adjusted with sodium carbonate.

[5] = system: Lactobacillus brevis (ATCC 14869); assay: Example 3 suspension test of nonanoic acid alone, Lactobacillus; type: cell-based; conditions: for % reduction / Log Reduction: Nonanoic Acid 200 ppm
Procedure: as §2

[6] = known antimicrobial agents; cited from earlier work
[7] = 60 s, 50 °C, 1% sodium bicarbonate
[8] = various times, temperatures, pHs, and solution conditions (Table 3)
[9] = pH 8.5, 60 s, 50 °C, 1% sodium bicarbonate
[10] = pH 8.5, 600 s, 50 °C, 1% sodium bicarbonate
[11] = pH 8.5, 2 days, 20 °C, used CIP
[12] = pH 8.7, 60 s, 45 °C, 0.5% sodium bicarbonate
[13] = pH 8.7, 120 s, 45 °C, 0.5% sodium bicarbonate
[14] = pH 8.7, 300 s, 45 °C, 0.5% sodium bicarbonate
[15] = pH 8.7, 600 s, 45 °C, 0.5% sodium bicarbonate
[16] = pH 9, 60 s, 50 °C, 1% sodium bicarbonate
[17] = pH 10.5, 60 s, 50 °C, 1% sodium bicarbonate
[18] = pH 10.5, 600 s, 50 °C, used CIP
[19] = pH not adjusted, 60 s, 45 °C, 0.5% sodium bicarbonate
[20] = pH not adjusted, 120 s, 45 °C, 0.5% sodium bicarbonate
[21] = pH not adjusted, 300 s, 45 °C, 0.5% sodium bicarbonate
[22] = pH not adjusted, 600 s, 45 °C, 0.5% sodium bicarbonate

Compound: CCCCCCCCCCCC(=O)N[C@@H](CCCN=C(N)N)C(=O)OCC [Ethyl Lauroyl Arginate, ethyl lauroyl arginate]
- % reduction ([1]; Ethyl Lauroyl Arginate 5 ppm, pH 4, 60 s, 50 °C): 98.844%
- % reduction ([1]; Ethyl Lauroyl Arginate 5 ppm, pH 9, 60 s, 50 °C): 99.999%
- % reduction ([1]; Ethyl Lauroyl Arginate 25 ppm, pH 4, 50 s, 60 °C): 99.999%
- % reduction ([1]; Ethyl Lauroyl Arginate 25 ppm, pH 10, 50 s, 60 °C): 100.000%
- % reduction ([1]; Ethyl Lauroyl Arginate 50 ppm, pH 4, 50 s, 60 °C): 100.000%
- % reduction ([1]; Ethyl Lauroyl Arginate 50 ppm, pH 10, 50 s, 60 °C): 100.000%
- % reduction ([2]; Ethyl Lauroyl Arginate 2.5 ppm, pH 9): 99.891%
- % reduction ([2]; Ethyl Lauroyl Arginate 5 ppm, pH 9): 99.981% and 99.922%
- % reduction ([2]; Ethyl Lauroyl Arginate 25 ppm, pH 4): 32.759%
- % reduction ([2]; Ethyl Lauroyl Arginate 25 ppm, pH 9): 99.808%
- % reduction ([2]; Ethyl Lauroyl Arginate 25 ppm, pH 10): 99.241%
- % reduction ([2]; Ethyl Lauroyl Arginate 50 ppm, pH 4): 98.491%
- % reduction ([2]; Ethyl Lauroyl Arginate 50 ppm, pH 10): 99.763%
- % reduction ([2]; Ethyl Lauroyl Arginate 200 ppm, pH 7): 99.999%
- % reduction ([2]; Ethyl Lauroyl Arginate 200 ppm, pH 10): 99.998%
- % reduction ([3]; Ethyl Lauroyl Arginate 5 ppm): 99.888%

Compound: CCCCCCCCC(=O)O [Nonanoic Acid, nonanoic acid]
- % reduction [4, 7]: 99.993%
- Log Reduction [4, 7]: 4.18
- % reduction ([4]; 2 days, 20 °C, used CIP): 97.846%
- Log Reduction ([4]; 2 days, 20 °C, used CIP): 1.67
- reducing gram negative bacteria [4, 8]: effective
- % reduction ([1]; Nonanoic Acid 125 ppm, pH 4, 60 s, 50 °C): 100.000%
- % reduction ([1]; Nonanoic Acid 125 ppm, pH 9, 60 s, 50 °C): 96.125%
- % reduction [5, 9]: 99.636%
- Log Reduction [5, 9]: 2.44
- % reduction [5, 10]: 100.000%
- Log Reduction [5, 10]: 6.90
- % reduction ([5]; pH 8.5, 600 s, 50 °C, used CIP): 100.000%
- Log Reduction ([5]; pH 8.5, 600 s, 50 °C, used CIP): 7.04
- % reduction [5, 11]: 100.000%
- Log Reduction [5, 11]: 7.20
- % reduction [5, 12]: 99.900%
- Log Reduction [5, 12]: 3.00
- % reduction [5, 13]: 100.000%
- Log Reduction [5, 13]: 7.64
- % reduction [5, 14]: 100.000%
- Log Reduction [5, 14]: 7.64
- % reduction [5, 15]: 100.000%
- Log Reduction [5, 15]: 7.64
- % reduction [5, 16]: 99.736%
- Log Reduction [5, 16]: 2.58
- % reduction ([5]; pH 9, 600 s, 50 °C, used CIP): 100.000%
- Log Reduction ([5]; pH 9, 600 s, 50 °C, used CIP): 7.04
- % reduction ([5]; pH 9, 2 days, 20 °C, used CIP): 100.000%
- Log Reduction ([5]; pH 9, 2 days, 20 °C, used CIP): 7.20
- % reduction [5, 17]: 100.000%
- Log Reduction [5, 17]: 7.04
- % reduction [5, 18]: 100.000%
- Log Reduction [5, 18]: 7.04
- % reduction [5, 19]: 99.905%
- Log Reduction [5, 19]: 3.02
- % reduction [5, 20]: 100.000%
- Log Reduction [5, 20]: 6.34
- % reduction [5, 21]: 100.000%
- Log Reduction [5, 21]: 7.64
- % reduction [5, 22]: 100.000%
- Log Reduction [5, 22]: 7.64
- reducing gram positive bacteria [5, 8]: effective
- % reduction ([2]; Nonanoic Acid 125 ppm, pH 9): 99.998%
- % reduction ([3]; Nonanoic Acid 125 ppm): 99.954%

Compound: CCCCCCCC(=O)O [Octanoic Acid, octanoic acid]
- % reduction ([1]; Octanoic Acid 125 ppm, pH 4, 60 s, 50 °C): 100.000%
- % reduction ([1]; Octanoic Acid 125 ppm, pH 9, 60 s, 50 °C): 97.813%
- % reduction ([1]; Octanoic Acid 150 ppm, pH 4, 50 s, 60 °C): 100.000%
- % reduction ([1]; Octanoic Acid 200 ppm, pH 4, 50 s, 60 °C): 100.000%
- % reduction ([2]; Octanoic Acid 100 ppm, pH 4): 0.000%
- % reduction ([2]; Octanoic Acid 100 ppm, pH 5): 54.967%
- % reduction ([2]; Octanoic Acid 100 ppm, pH 9): 99.999% and 99.998%
- % reduction ([2]; Octanoic Acid 125 ppm, pH 9): 99.998%
- % reduction ([2]; Octanoic Acid 150 ppm, pH 4): 86.207%
- % reduction ([2]; Octanoic Acid 200 ppm, pH 4): 99.998% and 99.996%
- % reduction ([2]; Octanoic Acid 200 ppm, pH 7): 99.993%
- % reduction ([3]; Octanoic Acid 125 ppm): 100.000%

Compound: OO [hydrogen peroxide]
- Typical Antimicrobial pH Range [6]: <5

Compound: CC(=O)OO [peracetic acid]
- Typical Antimicrobial pH Range [6]: <7

Compound: CCCCCCCC(=O)OO [peroctanoic acid]
- Typical Antimicrobial pH Range [6]: <5

Compound: acidified sodium chlorite
- Typical Antimicrobial pH Range [6]: 2.5-4
